Where two headings read alike, the source gives them in different places. Blank lines part the entries; values can stand above or below the molecule they belong to.
Experiments:
Assay in all cases: biochemical
Parameters in all cases: species or system human cell line lysate
[1] = molecular target: Ribosomal protein S6 kinase alpha-3 ; RPS6KA3 ; P51812 (Homo sapiens, UniProt P51812)
[2] = molecular target: Serine/threonine-protein kinase LMTK2 ; LMTK2 ; Q8IWU2 (Homo sapiens, UniProt Q8IWU2)
[3] = molecular target: Serine/threonine-protein kinase D3 ; PRKD3 ; O94806 (Homo sapiens, UniProt O94806)
[4] = molecular target: Isoform 3 of Citron Rho-interacting kinase ; CIT ; O14578-3 (Homo sapiens, UniProt O14578)
[5] = molecular target: Mitogen-activated protein kinase kinase kinase 15 ; MAP3K15 ; Q6ZN16 (Homo sapiens, UniProt Q6ZN16)
[6] = molecular target: Ephrin type-B receptor 4 ; EPHB4 ; P54760 (Homo sapiens, UniProt P54760)
[7] = molecular target: Ephrin type-A receptor 2 ; EPHA2 ; P29317 (Homo sapiens, UniProt P29317)
[8] = molecular target: 5'-AMP-activated protein kinase catalytic subunit alpha-2 ; PRKAA2 ; P54646 (Homo sapiens, UniProt P54646)
[9] = molecular target: Receptor-type tyrosine-protein kinase FLT3 ; FLT3 ; P36888 (Homo sapiens, UniProt P36888)
[10] = molecular target: Proto-oncogene tyrosine-protein kinase receptor Ret ; RET ; P07949 (Homo sapiens, UniProt P07949)
[11] = molecular target: Aurora kinase A ; AURKA ; O14965 (Homo sapiens, UniProt O14965)
[12] = molecular target: RAC-beta serine/threonine-protein kinase ; AKT2 ; P31751 (Homo sapiens, UniProt P31751)
[13] = molecular target: Fructosamine-3-kinase ; FN3K ; Q9H479 (Homo sapiens, UniProt Q9H479)
[14] = molecular target: Phosphatidylinositol 5-phosphate 4-kinase type-2 gamma ; PIP4K2C ; Q8TBX8 (Homo sapiens, UniProt Q8TBX8)
[15] = molecular target: T1, Dual specificity mitogen-activated protein kinase kinase 5 ; MAP2K5 ; Q13163 (Homo sapiens, UniProt Q13163)
T1 sequence (Q13163 1-448): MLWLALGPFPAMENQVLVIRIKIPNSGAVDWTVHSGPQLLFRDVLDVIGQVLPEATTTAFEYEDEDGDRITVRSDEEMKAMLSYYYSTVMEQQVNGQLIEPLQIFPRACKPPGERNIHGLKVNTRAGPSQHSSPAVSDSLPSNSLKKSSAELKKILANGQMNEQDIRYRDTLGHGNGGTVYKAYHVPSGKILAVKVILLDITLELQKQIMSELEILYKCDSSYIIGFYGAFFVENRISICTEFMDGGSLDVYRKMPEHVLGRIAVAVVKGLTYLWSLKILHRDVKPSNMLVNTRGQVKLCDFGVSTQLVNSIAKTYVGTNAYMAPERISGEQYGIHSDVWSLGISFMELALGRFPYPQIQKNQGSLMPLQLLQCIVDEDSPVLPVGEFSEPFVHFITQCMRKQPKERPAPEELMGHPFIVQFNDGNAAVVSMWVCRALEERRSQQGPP

[16] = molecular target: Tyrosine-protein kinase JAK2 ; JAK2 ; O60674 (Homo sapiens, UniProt O60674)
[17] = molecular target: RAC-alpha serine/threonine-protein kinase ; AKT1 ; P31749 (Homo sapiens, UniProt P31749)
[18] = molecular target: Isoform 6 of Calcium/calmodulin-dependent protein kinase type II subun ; CAMK2G ; Q13555-6 (Homo sapiens, UniProt Q13555)
[19] = molecular target: Isoform 2 of Tyrosine-protein kinase Lyn ; LYN ; P07948-2 (Homo sapiens, UniProt P07948)
[20] = molecular target: AP2-associated protein kinase 1 ; AAK1 ; Q2M2I8 (Homo sapiens, UniProt Q2M2I8)
[21] = read-out: BAY-1251152 (10 µM) / %Intensity relative to DMSO
[22] = read-out: BAY-1143572 (10 µM) / %Intensity relative to DMSO

5'-AMP-activated protein kinase catalytic subunit alpha-2 ; PRKAA2 ; P54646, sequence (P54646 whole entry, one chain of several): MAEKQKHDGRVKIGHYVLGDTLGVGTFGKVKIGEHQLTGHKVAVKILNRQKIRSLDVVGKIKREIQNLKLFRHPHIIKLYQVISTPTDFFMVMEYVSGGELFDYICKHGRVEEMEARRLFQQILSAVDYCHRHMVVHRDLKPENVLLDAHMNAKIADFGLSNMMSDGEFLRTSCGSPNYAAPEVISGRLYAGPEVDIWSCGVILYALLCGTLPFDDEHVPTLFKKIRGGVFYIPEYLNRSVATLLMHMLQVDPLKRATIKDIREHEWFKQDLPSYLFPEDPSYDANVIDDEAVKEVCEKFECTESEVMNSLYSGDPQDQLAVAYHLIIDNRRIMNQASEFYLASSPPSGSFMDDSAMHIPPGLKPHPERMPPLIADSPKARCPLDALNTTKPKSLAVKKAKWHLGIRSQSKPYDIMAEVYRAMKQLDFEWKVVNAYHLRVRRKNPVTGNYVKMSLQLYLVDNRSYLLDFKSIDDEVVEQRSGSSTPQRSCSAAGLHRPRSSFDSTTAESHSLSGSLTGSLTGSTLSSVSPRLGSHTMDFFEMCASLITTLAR
Isoform 6 of Calcium/calmodulin-dependent protein kinase type II subun ; CAMK2G ; Q13555-6, sequence (Q13555 whole entry, canonical isoform, one chain of several): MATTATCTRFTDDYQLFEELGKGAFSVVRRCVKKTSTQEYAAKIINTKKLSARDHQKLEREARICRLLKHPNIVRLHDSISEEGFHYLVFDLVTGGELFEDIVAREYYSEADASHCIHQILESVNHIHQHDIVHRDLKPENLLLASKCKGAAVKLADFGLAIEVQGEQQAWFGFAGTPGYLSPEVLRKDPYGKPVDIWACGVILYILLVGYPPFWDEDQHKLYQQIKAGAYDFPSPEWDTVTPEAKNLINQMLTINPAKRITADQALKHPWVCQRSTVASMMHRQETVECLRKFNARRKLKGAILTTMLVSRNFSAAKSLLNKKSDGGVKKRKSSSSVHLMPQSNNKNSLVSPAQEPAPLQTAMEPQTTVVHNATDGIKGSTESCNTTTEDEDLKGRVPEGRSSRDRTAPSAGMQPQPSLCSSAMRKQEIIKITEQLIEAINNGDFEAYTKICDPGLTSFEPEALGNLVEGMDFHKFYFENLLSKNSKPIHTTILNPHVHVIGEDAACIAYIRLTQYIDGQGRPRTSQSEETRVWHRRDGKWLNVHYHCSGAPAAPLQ
Ephrin type-A receptor 2 ; EPHA2 ; P29317, sequence (P29317 whole entry): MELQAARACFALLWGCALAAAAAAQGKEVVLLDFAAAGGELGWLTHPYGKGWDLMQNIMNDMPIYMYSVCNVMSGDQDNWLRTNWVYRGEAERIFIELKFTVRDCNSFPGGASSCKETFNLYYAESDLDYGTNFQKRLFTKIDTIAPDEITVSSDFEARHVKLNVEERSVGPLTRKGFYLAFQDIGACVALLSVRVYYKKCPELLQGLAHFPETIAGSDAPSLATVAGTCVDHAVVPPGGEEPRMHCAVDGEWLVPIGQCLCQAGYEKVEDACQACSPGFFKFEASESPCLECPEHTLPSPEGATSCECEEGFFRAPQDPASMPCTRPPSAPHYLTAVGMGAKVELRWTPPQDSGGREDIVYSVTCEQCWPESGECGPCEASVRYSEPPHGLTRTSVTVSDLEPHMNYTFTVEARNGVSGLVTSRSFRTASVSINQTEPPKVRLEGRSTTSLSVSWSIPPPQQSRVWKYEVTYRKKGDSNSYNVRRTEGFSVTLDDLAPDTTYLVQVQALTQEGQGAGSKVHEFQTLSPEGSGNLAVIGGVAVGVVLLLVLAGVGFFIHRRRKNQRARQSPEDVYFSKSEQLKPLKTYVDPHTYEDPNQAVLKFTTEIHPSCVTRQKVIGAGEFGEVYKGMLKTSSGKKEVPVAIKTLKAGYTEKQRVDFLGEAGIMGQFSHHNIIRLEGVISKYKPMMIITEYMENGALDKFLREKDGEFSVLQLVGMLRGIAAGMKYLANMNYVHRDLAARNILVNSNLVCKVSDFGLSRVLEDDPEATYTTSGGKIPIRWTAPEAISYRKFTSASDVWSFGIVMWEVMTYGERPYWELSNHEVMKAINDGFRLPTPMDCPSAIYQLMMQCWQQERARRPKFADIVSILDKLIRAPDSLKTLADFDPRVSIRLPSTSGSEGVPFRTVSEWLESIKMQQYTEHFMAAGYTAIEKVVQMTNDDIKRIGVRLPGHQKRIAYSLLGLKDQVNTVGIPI
Aurora kinase A ; AURKA ; O14965, sequence (O14965 whole entry): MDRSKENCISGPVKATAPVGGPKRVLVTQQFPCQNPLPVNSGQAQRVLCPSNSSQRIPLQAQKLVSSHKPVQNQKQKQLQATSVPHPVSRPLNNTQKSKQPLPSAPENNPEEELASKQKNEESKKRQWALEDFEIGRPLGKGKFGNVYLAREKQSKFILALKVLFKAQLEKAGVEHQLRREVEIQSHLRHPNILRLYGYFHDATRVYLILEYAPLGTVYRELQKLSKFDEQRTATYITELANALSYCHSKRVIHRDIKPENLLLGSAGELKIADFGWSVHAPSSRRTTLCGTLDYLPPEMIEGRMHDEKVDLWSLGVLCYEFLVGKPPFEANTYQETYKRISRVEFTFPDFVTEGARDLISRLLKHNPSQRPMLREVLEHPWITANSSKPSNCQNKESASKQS
Mitogen-activated protein kinase kinase kinase 15 ; MAP3K15 ; Q6ZN16, sequence (Q6ZN16 whole entry): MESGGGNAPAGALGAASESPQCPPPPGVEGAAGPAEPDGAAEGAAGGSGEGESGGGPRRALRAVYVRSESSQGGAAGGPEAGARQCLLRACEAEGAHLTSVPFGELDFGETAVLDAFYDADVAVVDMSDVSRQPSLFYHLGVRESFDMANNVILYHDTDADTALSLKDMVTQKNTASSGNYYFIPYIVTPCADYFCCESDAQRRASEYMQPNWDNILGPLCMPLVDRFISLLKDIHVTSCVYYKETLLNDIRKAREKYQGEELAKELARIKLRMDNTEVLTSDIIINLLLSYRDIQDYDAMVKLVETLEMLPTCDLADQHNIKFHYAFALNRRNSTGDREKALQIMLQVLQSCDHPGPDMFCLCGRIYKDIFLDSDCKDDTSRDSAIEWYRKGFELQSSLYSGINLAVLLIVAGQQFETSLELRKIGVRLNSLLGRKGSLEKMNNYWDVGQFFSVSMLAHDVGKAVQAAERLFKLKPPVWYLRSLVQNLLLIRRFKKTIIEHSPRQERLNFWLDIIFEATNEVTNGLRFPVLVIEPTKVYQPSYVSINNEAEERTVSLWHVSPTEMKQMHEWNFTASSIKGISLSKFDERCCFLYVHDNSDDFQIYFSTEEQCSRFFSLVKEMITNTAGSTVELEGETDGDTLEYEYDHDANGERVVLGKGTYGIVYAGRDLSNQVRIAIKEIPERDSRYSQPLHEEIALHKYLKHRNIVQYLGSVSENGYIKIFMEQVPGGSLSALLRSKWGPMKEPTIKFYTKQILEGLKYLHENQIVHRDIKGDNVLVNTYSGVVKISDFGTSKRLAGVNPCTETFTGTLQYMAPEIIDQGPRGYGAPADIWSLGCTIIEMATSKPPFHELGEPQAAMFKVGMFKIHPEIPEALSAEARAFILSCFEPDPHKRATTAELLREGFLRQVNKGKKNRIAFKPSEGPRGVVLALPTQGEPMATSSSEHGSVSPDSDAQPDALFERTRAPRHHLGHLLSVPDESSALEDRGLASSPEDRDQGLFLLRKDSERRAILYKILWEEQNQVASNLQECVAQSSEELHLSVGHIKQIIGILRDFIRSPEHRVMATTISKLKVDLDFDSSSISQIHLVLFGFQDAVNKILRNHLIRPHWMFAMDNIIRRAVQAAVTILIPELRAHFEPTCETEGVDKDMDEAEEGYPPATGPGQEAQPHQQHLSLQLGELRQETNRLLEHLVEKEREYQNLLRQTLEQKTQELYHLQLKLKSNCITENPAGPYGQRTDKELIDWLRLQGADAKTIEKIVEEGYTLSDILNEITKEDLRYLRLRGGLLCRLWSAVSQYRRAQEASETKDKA
AP2-associated protein kinase 1 ; AAK1 ; Q2M2I8, sequence (Q2M2I8 whole entry): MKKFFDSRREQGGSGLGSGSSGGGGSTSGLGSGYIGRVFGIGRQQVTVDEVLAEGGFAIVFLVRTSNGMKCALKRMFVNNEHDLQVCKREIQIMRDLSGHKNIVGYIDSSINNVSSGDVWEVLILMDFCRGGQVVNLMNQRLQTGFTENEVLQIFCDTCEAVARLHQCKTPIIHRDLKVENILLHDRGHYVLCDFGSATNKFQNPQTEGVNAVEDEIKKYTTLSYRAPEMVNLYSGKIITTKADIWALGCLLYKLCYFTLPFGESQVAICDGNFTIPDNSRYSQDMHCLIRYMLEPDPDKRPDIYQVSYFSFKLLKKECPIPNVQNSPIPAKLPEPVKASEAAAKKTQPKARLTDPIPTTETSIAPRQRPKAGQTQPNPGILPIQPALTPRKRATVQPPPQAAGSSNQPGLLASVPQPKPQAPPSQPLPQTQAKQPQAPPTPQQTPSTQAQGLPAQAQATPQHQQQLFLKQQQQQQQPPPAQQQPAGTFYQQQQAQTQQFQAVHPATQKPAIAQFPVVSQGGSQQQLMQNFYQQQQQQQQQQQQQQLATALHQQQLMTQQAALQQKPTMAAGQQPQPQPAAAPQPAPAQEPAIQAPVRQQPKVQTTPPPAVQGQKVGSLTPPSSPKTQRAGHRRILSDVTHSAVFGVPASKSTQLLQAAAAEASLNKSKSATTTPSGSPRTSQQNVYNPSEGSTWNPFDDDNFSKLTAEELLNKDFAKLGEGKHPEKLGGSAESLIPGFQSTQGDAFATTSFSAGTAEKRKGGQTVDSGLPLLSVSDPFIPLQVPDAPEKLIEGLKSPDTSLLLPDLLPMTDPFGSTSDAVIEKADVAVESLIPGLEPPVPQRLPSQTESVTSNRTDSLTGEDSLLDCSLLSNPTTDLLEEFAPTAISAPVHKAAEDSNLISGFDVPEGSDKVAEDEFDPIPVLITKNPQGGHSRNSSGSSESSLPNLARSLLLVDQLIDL
Fructosamine-3-kinase ; FN3K ; Q9H479, sequence (Q9H479 whole entry): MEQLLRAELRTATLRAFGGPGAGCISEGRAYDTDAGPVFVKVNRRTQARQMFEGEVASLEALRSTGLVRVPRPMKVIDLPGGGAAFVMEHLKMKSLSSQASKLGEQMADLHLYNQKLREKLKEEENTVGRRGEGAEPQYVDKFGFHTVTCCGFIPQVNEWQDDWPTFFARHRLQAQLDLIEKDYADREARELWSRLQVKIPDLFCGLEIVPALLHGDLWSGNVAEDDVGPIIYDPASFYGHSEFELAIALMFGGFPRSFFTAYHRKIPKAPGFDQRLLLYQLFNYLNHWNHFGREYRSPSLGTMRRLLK

remaining activity at 10 µM [1, 21]: 107%
remaining activity at 10 µM [2, 21]: 126%
remaining activity at 10 µM [3, 21]: 102%
remaining activity at 10 µM [4, 21]: 89.3%
remaining activity at 10 µM [5, 21]: 95%
remaining activity at 10 µM [6, 21]: 100%
remaining activity at 10 µM [7, 21]: 103%
remaining activity at 10 µM [8, 21]: 113%
remaining activity at 10 µM [9, 21]: 84.2%
remaining activity at 10 µM [10, 21]: 87.9%
remaining activity at 10 µM [11, 21]: 98.6%
remaining activity at 10 µM [12, 21]: 119%
remaining activity at 10 µM [13, 21]: 106%
remaining activity at 10 µM [14, 21]: 107%
remaining activity at 10 µM [15, 21]: 101%
remaining activity at 10 µM [16, 21]: 95.9%
remaining activity at 10 µM [17, 21]: 125%
remaining activity at 10 µM [18, 21]: 94.9%
remaining activity at 10 µM [19, 21]: 107%
remaining activity at 10 µM [20, 21]: 87.9%
Structure (SMILES): COc1cc(F)ccc1-c1cc(Nc2cc(CS(C)(=N)=O)ccn2)ncc1F (stereo not shown) [BAY-1251152]

remaining activity at 10 µM [1, 22]: 115%
remaining activity at 10 µM [2, 22]: 128%
remaining activity at 10 µM [3, 22]: 108%
remaining activity at 10 µM [4, 22]: 99.1%
remaining activity at 10 µM [5, 22]: 91.7%
remaining activity at 10 µM [6, 22]: 94.1%
remaining activity at 10 µM [7, 22]: 84.9%
remaining activity at 10 µM [8, 22]: 115%
remaining activity at 10 µM [9, 22]: 70.5%
remaining activity at 10 µM [10, 22]: 97%
remaining activity at 10 µM [11, 22]: 112%
remaining activity at 10 µM [12, 22]: 117%
remaining activity at 10 µM [13, 22]: 114%
remaining activity at 10 µM [14, 22]: 110%
remaining activity at 10 µM [15, 22]: 102%
remaining activity at 10 µM [16, 22]: 95.1%
remaining activity at 10 µM [17, 22]: 128%
remaining activity at 10 µM [18, 22]: 105%
remaining activity at 10 µM [19, 22]: 102%
remaining activity at 10 µM [20, 22]: 80.2%
Structure (SMILES): COc1cc(F)ccc1-c1ncnc(Nc2cccc(C[S@](C)(=N)=O)c2)n1 [BAY-1143572]
